From ChEMBL document CHEMBL3804812, “Design, Syntheses, and Anti-TB Activity of 1,3-Benzothiazinone Azide and Click Chemistry Products Inspired by BTZ043” (ACS Med Chem Lett, 2016)
pIC50: −log10 of the molar value. In brackets after ≈: the same amount, converted by molar mass. Activity calls are given as the source filed them. No cut-off for these calls is given here.

How the values were obtained:
[1] = tested on: Mycobacterium tuberculosis; assay: Antibacterial activity against Mycobacterium tuberculosis H37Rv in GAS medium by microplate alamar blue assay; format: functional; conditions: for MIC: Mycobacterium tuberculosis, H37Rv
[2] = tested on: Mycobacterium tuberculosis; assay: Antibacterial activity against Mycobacterium tuberculosis H37Rv in 7H12 medium by microplate alamar blue assay; format: functional; conditions: for MIC: Mycobacterium tuberculosis, H37Rv
[3] = tested on: Mycobacterium tuberculosis; assay: Antibacterial activity against Mycobacterium tuberculosis H37Rv in GAS medium at >1uM by microplate alamar blue assay; format: functional
[4] = tested on: Mycobacterium tuberculosis; assay: Antibacterial activity against Mycobacterium tuberculosis H37Rv in 7H12 medium at >1uM by microplate alamar blue assay; format: functional
[5] = molecular target: T1, Decaprenylphosphoryl-beta-D-ribose oxidase (Mycobacterium smegmatis (strain ATCC 700084 / mc(2)155)) (UniProt A0R607); assay: Inhibition of DprE1 in P-14C-RPP-labelled Mycobacterium smegmatis MC2 155 cell membranes assessed as supression of conversion of decaprenylphosphoryl ribose to decaprenylphosphoryl arabinose after 1 hr by TLC analysis; format: cell-based; conditions: Mycolicibacterium smegmatis MC2 155
T1 sequence (whole entry): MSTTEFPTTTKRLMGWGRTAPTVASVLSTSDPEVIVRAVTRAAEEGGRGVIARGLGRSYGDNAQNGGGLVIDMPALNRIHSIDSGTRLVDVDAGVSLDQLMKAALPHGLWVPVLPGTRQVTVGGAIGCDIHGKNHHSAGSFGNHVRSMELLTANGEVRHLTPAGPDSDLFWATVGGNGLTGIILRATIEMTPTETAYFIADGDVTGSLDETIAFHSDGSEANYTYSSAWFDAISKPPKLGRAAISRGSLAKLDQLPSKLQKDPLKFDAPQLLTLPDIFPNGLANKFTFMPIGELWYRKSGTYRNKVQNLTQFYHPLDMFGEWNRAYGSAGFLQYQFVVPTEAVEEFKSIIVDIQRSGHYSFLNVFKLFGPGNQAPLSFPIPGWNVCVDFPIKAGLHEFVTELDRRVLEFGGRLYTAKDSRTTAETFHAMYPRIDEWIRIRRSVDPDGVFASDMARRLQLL

[6] = molecular target: T2, Decaprenylphosphoryl-beta-D-ribose oxidase (Mycobacterium tuberculosis (strain ATCC 25618 / H37Rv)) (UniProt P9WJF1); assay: Reversible inhibition of recombinant Mycobacterium tuberculosis H37Rv DprE1 using FPR as substrate assessed as residual enzymatic activity preincubated for 10 mins followed by substrate addition by fluorescence assay
T2 sequence (whole entry): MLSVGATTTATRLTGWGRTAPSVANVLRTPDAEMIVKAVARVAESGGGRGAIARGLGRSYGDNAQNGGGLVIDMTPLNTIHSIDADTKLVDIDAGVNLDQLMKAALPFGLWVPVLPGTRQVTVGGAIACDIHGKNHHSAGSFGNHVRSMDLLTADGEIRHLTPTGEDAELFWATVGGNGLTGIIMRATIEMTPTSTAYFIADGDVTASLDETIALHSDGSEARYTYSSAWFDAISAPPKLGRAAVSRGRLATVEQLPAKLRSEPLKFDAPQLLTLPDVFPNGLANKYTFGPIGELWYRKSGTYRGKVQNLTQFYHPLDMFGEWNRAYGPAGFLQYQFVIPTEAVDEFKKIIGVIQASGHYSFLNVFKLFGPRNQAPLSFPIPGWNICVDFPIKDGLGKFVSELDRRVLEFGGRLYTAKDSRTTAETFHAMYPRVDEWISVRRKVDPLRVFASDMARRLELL

[7] = molecular target: T3, Decaprenylphosphoryl-beta-D-ribose oxidase (Mycobacterium tuberculosis (strain ATCC 25618 / H37Rv), UniProt P9WJF1); assay: Inhibition of recombinant Mycobacterium tuberculosis H37Rv DprE1 using FPR as substrate assessed as residual enzymatic activity preincubated for 10 mins followed by substrate addition by fluorescence assay
T3 sequence (P9WJF1 whole entry): T2 sequence (whole entry)

[8] = molecular target: T2, Decaprenylphosphoryl-beta-D-ribose oxidase (Mycobacterium tuberculosis (strain ATCC 25618 / H37Rv)); assay: Irreversible inhibition of recombinant Mycobacterium tuberculosis H37Rv DprE1 using FPR as substrate assessed as residual enzymatic activity preincubated for 10 mins followed by substrate addition by fluorescence assay

Compound	MIC [1]	MIC [2]	growth inhibition (GI) [3]	growth inhibition (GI) [4]	inhibition [5]	inhibition [6]	pIC50 [7]	inhibition [8]	inhibition (INH) [1]	inhibition (INH) [2]
C[C@H]1COC2(CCN(c3nc(=O)c4cc(C(F)(F)F)cc(-n5cc(Cc6ccccc6)nn5)c4s3)CC2)O1	9.27 µM (≈ 5.04 µg/mL)	9.9 µM (≈ 5.38 µg/mL)	0%	0%	–	–	–	–	–	–
CCOC(=O)c1cn(-c2cc(C(F)(F)F)cc3c(=O)nc(N4CCC5(CC4)OC[C@H](C)O5)sc23)nn1	> 1 µM	0.93 µM (≈ 0.489 µg/mL)	34%	–	–	–	–	–	–	–
C[C@H]1COC2(CCN(c3nc(=O)c4cc(C(F)(F)F)cc(N=[N+]=[N-])c4s3)CC2)O1	0.46 µM (≈ 0.197 µg/mL)	0.47 µM (≈ 0.201 µg/mL)	–	–	inactive	Active	5.02	–	–	–
C[C@H]1COC2(CCN(c3nc(=O)c4cc(C(F)(F)F)cc([N+](=O)[O-])c4s3)CC2)O1 [BTZ-043]	< 0.004 µM	< 0.004 µM	–	–	Active	–	–	Active	–	–
C[C@H]1COC2(CCN(c3nc(=O)c4cc(C(F)(F)F)ccc4s3)CC2)O1	8.68 µM (≈ 3.35 µg/mL)	> 100 µM	–	–	inactive	–	–	–	–	–
CO[C@H]1/C=C/O[C@@]2(C)Oc3c(C)c(O)c4c(O)c(c(/C=N/N5CCN(C)CC5)c(O)c4c3C2=O)NC(=O)/C(C)=C\C=C\[C@H](C)[C@H](O)[C@@H](C)[C@@H](O)[C@@H](C)[C@H](OC(C)=O)[C@@H]1C [RIFAMPIN]	0.04 µM (≈ 0.0329 µg/mL)	0.05 µM (≈ 0.0411 µg/mL)	–	–	–	–	–	–	–	–
C[C@H]1COC2(CCN(c3nc(=O)c4cc(C(F)(F)F)cc(N)c4s3)CC2)O1	> 10 µM	> 10 µM	0%	87%	–	–	–	–	10%	12%
C[C@H]1COC2(CCN(c3nc(=O)c4cc(C(F)(F)F)cc(-n5cc(CN(C)C)nn5)c4s3)CC2)O1	0.95 µM (≈ 0.485 µg/mL)	0.87 µM (≈ 0.444 µg/mL)	–	–	–	–	–	–	–	–
